# According to PubChem BioAssay (NCI):
#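 Five compound concentrations were applied to cells in 96-well plates for 48 hours; endpoints were derived by simple linear interpolation of the resulting dose-response curve. GI50 marks 50% less growth. TGI: concentration producing complete growth inhibition.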
# What was measured:
# Assay in all cases: NCI tumour cell line growth inhibition, 48 h
# NCI-H23 lung = system: NCI-H23 lung
# OVCAR-4 ovarian = system: OVCAR-4 ovarian
# COLO 205 colon = system: COLO 205 colon
# NCI-H460 lung = system: NCI-H460 lung
# TK-10 renal = system: TK-10 renal
# OVCAR-5 ovarian = system: OVCAR-5 ovarian
# SR leukemia = system: SR leukemia
# ACHN renal = system: ACHN renal
# RXF 393 renal = system: RXF 393 renal
# HCT-116 colon = system: HCT-116 colon
SMILES,TGI (NCI-H23 lung),TGI (OVCAR-4 ovarian),TGI (COLO 205 colon),TGI (NCI-H460 lung),TGI (TK-10 renal),TGI (OVCAR-5 ovarian),TGI (SR leukemia),TGI (ACHN renal),TGI (RXF 393 renal),TGI (HCT-116 colon),GI50 (NCI-H23 lung),GI50 (NCI-H460 lung),GI50 (TK-10 renal),GI50 (OVCAR-5 ovarian),GI50 (RXF 393 renal)
CNc1ccc(Cl)cc1S(=O)(=O)c1ccccc1[N+](=O)[O-],> 100 µM,> 100 µM,> 100 µM,> 100 µM,> 100 µM,> 100 µM,> 100 µM,> 100 µM,> 100 µM,–,–,–,–,–,–
c1ccc([P+](c2ccccc2)(c2ccccc2)c2ccc([P+](c3ccccc3)(c3ccccc3)c3ccccc3)cc2)cc1,> 100 µM,–,50.8 µM,> 100 µM,> 100 µM,> 100 µM,> 100 µM,> 100 µM,> 100 µM,> 100 µM,–,–,–,–,–
Nc1c(N=Nc2ccc(-c3ccc(N=Nc4c(O)ccc5cc(S(=O)(=O)O)cc(S(=O)(=O)O)c45)cc3)cc2)c(S(=O)(=O)O)cc2cc(S(=O)(=O)O)c(N=Nc3ccccc3)c(O)c12,> 100 µM,> 100 µM,> 100 µM,> 100 µM,–,> 100 µM,–,–,> 100 µM,> 100 µM,–,–,–,–,–
CNc1ccc(S(=O)Nc2ccccc2)cc1 (stereo not drawn),> 100 µM,> 100 µM,83.5 µM,> 100 µM,> 100 µM,> 100 µM,> 100 µM,> 100 µM,–,> 100 µM,–,–,–,–,–
CC(C)(C)OC(=O)N1CCc2c(n(C/C=C/c3ccccc3)[nH]c2=O)C1,> 100 µM,> 100 µM,> 100 µM,> 100 µM,> 100 µM,–,> 100 µM,> 100 µM,> 100 µM,> 100 µM,–,–,–,–,–
CC/C(Cl)=N\OC(=O)Nc1ccc(F)cc1F,46.5 µM,34.8 µM,3.6 µM,85.8 µM,24.3 µM,35.1 µM,–,3.78 µM,27.7 µM,19.1 µM,–,–,–,–,–
O=C1CSc2nnc(CCCCCCCCc3nnc4n3NC(=O)CS4)n2N1,> 100 µM,> 100 µM,> 100 µM,> 100 µM,–,> 100 µM,> 100 µM,> 100 µM,–,> 100 µM,–,–,–,–,–
C=CCOC(=O)CCCCCCCCCCCCCCCOC(=O)C1=C(CCC[C@@H](C)O[Si](C)(C)C(C)(C)C)NC(=O)N2[C@H](CC3(CC/C=C\[C@H](CC)O[Si](C(C)C)(C(C)C)C(C)C)OCCO3)CC[C@H]12,> 100 µM,> 100 µM,> 100 µM,> 100 µM,> 100 µM,> 100 µM,–,> 100 µM,–,> 100 µM,–,–,–,–,–
CC(C)CCCC(C)[C@H]1CC[C@H]2N=C(Nc3ccccc3)CCC[C@]12C (stereo partly drawn),4.25 µM,14.4 µM,2.67 µM,3.92 µM,9.33 µM,–,4.33 µM,–,2.98 µM,–,–,–,–,–,–
OC12CCCCCC1(N1CCOCC1)c1ccccc12 (stereo not drawn),> 100 µM,> 100 µM,> 100 µM,> 100 µM,> 100 µM,> 100 µM,–,> 100 µM,> 100 µM,> 100 µM,–,–,–,–,–
CCOc1ccc(-c2oc(/C=N/NS(=O)(=O)c3ccc(C)cc3)c([N+](=O)[O-])c2-c2ccc(OCC)cc2)cc1,31.4 µM,25.4 µM,37.2 µM,29.7 µM,70.3 µM,24.1 µM,–,23.7 µM,29.3 µM,3.92 µM,–,–,–,–,–
COC(=O)c1c(OC)cc2cc3c(c(O)c2c1C)C(=O)C1(O)C(=O)C=C(OC)C(OC(=O)CC(C)N)=C1C3=O (stereo not drawn),> 100 µM,90.1 µM,> 100 µM,> 100 µM,> 100 µM,> 100 µM,47.6 µM,> 100 µM,–,> 100 µM,–,–,–,–,–
CC1=C2C(=O)c3ccccc3C(=O)[C@H]2C[C@@H](N2CCCCCC2=O)O1,31.1 µM,32.1 µM,32.2 µM,33.3 µM,37.7 µM,30.4 µM,25.7 µM,51.7 µM,55.9 µM,–,–,–,–,–,–
Cc1cc(S(=O)(=O)O)c(NC(=O)c2oc3cc(O)ccc3c(=O)c2C)cc1Cl,> 100 µM,> 100 µM,–,> 100 µM,> 100 µM,> 100 µM,–,> 100 µM,> 100 µM,> 100 µM,–,–,–,–,–
[N-]=[N+]=C(C(=O)C(=[N+]=[N-])C(=O)c1ccccc1)C(=O)c1ccccc1,> 100 µM,–,> 100 µM,> 100 µM,> 100 µM,> 100 µM,–,> 100 µM,> 100 µM,> 100 µM,–,–,–,–,–
O=c1oc2ccc(Cl)cc2cc1-c1cn2ccsc2n1,> 100 µM,> 100 µM,93.6 µM,> 100 µM,> 100 µM,–,> 100 µM,> 100 µM,> 100 µM,> 100 µM,–,–,–,–,–
CC(C)(C)c1ccc(-c2nnc(-c3cc(C#N)cc(-c4nnc(-c5ccc(C(C)(C)C)cc5)o4)c3)o2)cc1,> 100 µM,> 100 µM,> 100 µM,> 100 µM,> 100 µM,> 100 µM,–,> 100 µM,96.9 µM,> 100 µM,–,–,–,–,–

SMILES,TGI (NCI-H23 lung),TGI (OVCAR-4 ovarian),TGI (COLO 205 colon),TGI (NCI-H460 lung),TGI (TK-10 renal),TGI (OVCAR-5 ovarian),TGI (SR leukemia),TGI (ACHN renal),TGI (RXF 393 renal),TGI (HCT-116 colon),GI50 (NCI-H23 lung),GI50 (NCI-H460 lung),GI50 (TK-10 renal),GI50 (OVCAR-5 ovarian),GI50 (RXF 393 renal)
COC(=O)n1c(C[P+](c2ccccc2)(c2ccccc2)c2ccccc2)cc2ccccc21,7.77 µM,–,2.92 µM,12.2 µM,9.12 µM,8.66 µM,25 µM,14.9 µM,14.4 µM,11 µM,–,–,–,–,–
COc1ccc(C2=C(OC(=O)N(C)C)c3cccn3-c3cc(Cl)ccc3S2)cc1,> 10 µM,> 10 µM,> 10 µM,–,> 10 µM,–,> 10 µM,–,> 10 µM,–,–,–,–,–,–
CCOC(=O)CCCn1cc(C(=O)OC)nn1,> 100 µM,> 100 µM,> 100 µM,> 100 µM,> 100 µM,–,–,> 100 µM,> 100 µM,> 100 µM,–,–,–,–,–
CCOC(=O)C1CCCCc2sc(N)c(C#N)c21 (stereo not drawn),> 100 µM,–,> 100 µM,> 100 µM,> 100 µM,> 100 µM,> 100 µM,> 100 µM,> 100 µM,> 100 µM,–,–,–,–,–
C=C1CC(Cn2cc(Br)c(=O)[nH]c2=O)(c2ccc(-c3ccccc3)cc2)OC1=O (stereo not drawn),3.4 µM,4.64 µM,2.23 µM,19.7 µM,0.842 µM,15.6 µM,–,3.24 µM,–,1.32 µM,–,–,–,–,–
CC(=O)CC1(C)OC(N)=C(C#N)C1(C#N)C#N (stereo not drawn),> 100 µM,–,> 100 µM,–,> 100 µM,> 100 µM,–,> 100 µM,> 100 µM,> 100 µM,–,–,–,–,–
CC12CC(c3ccccc3O1)C(C(=O)Nc1cccc(F)c1)C(=O)N2 (stereo not drawn),79.3 µM,> 100 µM,> 100 µM,> 100 µM,–,> 100 µM,> 100 µM,> 100 µM,–,> 100 µM,–,–,–,–,–
C=C[C@@](C)(/C=C/c1ccc(O)cc1)CCC=C(C)C,30.4 µM,28.6 µM,33.1 µM,29.2 µM,32.3 µM,33.5 µM,32.1 µM,22.4 µM,–,32.2 µM,–,–,–,–,–
CC(C)(C)c1c(C(C)(C)C)c(=O)c1=O,> 100 µM,> 100 µM,> 100 µM,> 100 µM,> 100 µM,> 100 µM,–,> 100 µM,> 100 µM,> 100 µM,–,–,–,–,–
CC(=O)NC1=C(NCC(C)C)C(=O)c2ccccc2C1=O,59.7 µM,> 100 µM,> 100 µM,> 100 µM,40.9 µM,> 100 µM,–,> 100 µM,25.4 µM,35.2 µM,–,–,–,–,–
NS(=O)(=O)c1cc(S(N)(=O)=O)c(NC(=O)N(c2ccccc2)c2ccccc2)c(Cl)c1Cl,58.2 µM,> 100 µM,42.2 µM,> 100 µM,> 100 µM,> 100 µM,43.1 µM,76.5 µM,–,> 100 µM,–,–,–,–,–
CCCCCCCCCCCCCCCCOCC(Cl)COP(=O)(O)OP(=O)(O)OCC1OC(n2cnc3c(N)ncnc32)C(O)C1O (stereo not drawn),> 100 µM,> 100 µM,> 100 µM,> 100 µM,> 100 µM,> 100 µM,–,> 100 µM,> 100 µM,> 100 µM,–,–,–,–,–
COC(=O)CC(NC(=O)OCc1ccccc1)C(C(=O)OCc1ccccc1)C1(C)OCCO1 (stereo not drawn),> 100 µM,> 100 µM,36.5 µM,> 100 µM,> 100 µM,–,58.2 µM,> 100 µM,> 100 µM,> 100 µM,–,–,–,–,–
CC12CC(C/C1=N/O)C(C)(C)C2 (stereo not drawn),> 100 µM,> 100 µM,> 100 µM,> 100 µM,> 100 µM,> 100 µM,–,> 100 µM,> 100 µM,> 100 µM,–,–,–,–,–
CCCCCCOc1ccc(C(=N)N(CCCC)CCCC)c2ccccc12,2.8 µM,–,–,3.01 µM,3.14 µM,2.94 µM,–,–,2.74 µM,–,1.45 µM,1.56 µM,1.57 µM,1.53 µM,1.28 µM
CCCCCCOP(=O)(OCCCCCC)OC(C(=O)OC)C(F)(F)F (stereo not drawn),> 100 µM,> 100 µM,> 100 µM,–,> 100 µM,> 100 µM,> 100 µM,> 100 µM,–,> 100 µM,–,–,–,–,–
COc1cccc(CN(C(=O)/C=C\Sc2ccccc2)C(C)(C)C)c1,> 100 µM,> 100 µM,> 100 µM,–,> 100 µM,> 100 µM,–,> 100 µM,–,> 100 µM,–,–,–,–,–
